# Assay results published in ChEMBL document CHEMBL6074684, “Structure-activity relationship study of novel evodiamine amino acid conjugates with potent anti-colorectal cancer efficacy” (Eur J Med Chem, 2025).
# Activity calls are given as the source filed them. No cut-off for these calls is given here.
# Assays:
# HCT-116 = experiment: Antiproliferative activity against human […] cells assessed as inhibition of cell growth incubated for 72 hrs by MTT assay; type: functional, cell-based; details: HCT-116, 72 h
# RKO [1] = experiment: Antiproliferative activity against human RKO cells assessed as inhibition of cell growth incubated for 72 hrs by MTT assay; type: functional, cell-based
# MGC-803 = experiment: Antiproliferative activity against human MGC-803 cells assessed as inhibition of cell growth incubated for 72 hrs by MTT assay; type: functional, cell-based; details: MGC-803, 72 h
# Huh-7 = experiment: Antiproliferative activity against human Huh-7 cells assessed as inhibition of cell growth incubated for 72 hrs by MTT assay; type: functional, cell-based; details: Huh-7, 72 h
# MCF7 = experiment: Antiproliferative activity against human MCF7 cells assessed as inhibition of cell growth incubated for 72 hrs by MTT assay; type: functional, cell-based; details: MCF7, 72 h
# [2] = Aqueous solubility of compound by HPLC analysis; type: physicochemical
# [3] = Tmax in male Sprague-Dawley rat at 50 mg/kg, ip measured after 24 hrs by LC-MS/MS analysis; type: ADME, organism-based; details: in vivo
# [4] = Cmax in male Sprague-Dawley rat at 50 mg/kg, ip measured after 24 hrs by LC-MS/MS analysis; type: ADME, organism-based; details: in vivo
# [5] = AUC (0 to t) in male Sprague-Dawley rat at 50 mg/kg, ip measured after 24 hrs by LC-MS/MS analysis; type: ADME, organism-based; details: in vivo
# [6] = Potency index, ratio of topotecan IC50 to test compound IC50 for antiproliferative activity against human LoVo cells assessed as inhibition of cell growth incubated for 72 hrs by MTT assay; type: functional
# [7] = Potency index, ratio of topotecan IC50 to test compound IC50 for antiproliferative activity against human RKO cells assessed as inhibition of cell growth incubated for 72 hrs by MTT assay; type: functional
# LoVo [8] = experiment: Antiproliferative activity against human LoVo cells assessed as reduction in cell viability measured after 24 hrs; type: functional, cell-based; details: dose 40-200 nmol/L
# LoVo [9] = experiment: Cell cycle arrest in human LoVo cells assessed as accumulation of cells at G1 phase cells at 90 nM incubated for 24 hrs by […]PI staining based flow cytometric analysis (reference value: 29.69 %); type: functional
# LoVo [10] = experiment: Cell cycle arrest in human LoVo cells assessed as accumulation of cells at G2 phase cells at 90 nM incubated for 24 hrs by […]PI staining based flow cytometric analysis (reference value: 14.84 %); type: functional
# LoVo [11] = experiment: Cell cycle arrest in human LoVo cells assessed as accumulation of cells at G1 phase cells at 10 nM incubated for 24 hrs by […]PI staining based flow cytometric analysis (reference value: 29.69 %); type: functional
# LoVo [12] = experiment: Cell cycle arrest in human LoVo cells assessed as accumulation of cells at G2 phase cells at 10 nM incubated for 24 hrs by […]PI staining based flow cytometric analysis (reference value: 14.84 %); type: functional
# LoVo [13] = experiment: Cell cycle arrest in human LoVo cells assessed as accumulation of cells at S phase cells at 10 nM incubated for 24 hrs by […]PI staining based flow cytometric analysis (reference value: 54.99 %); type: functional
# LoVo [14] = experiment: Cell cycle arrest in human LoVo cells assessed as accumulation of cells at G1 phase cells at 30 nM incubated for 24 hrs by […]PI staining based flow cytometric analysis (reference value: 29.69 %); type: functional
# LoVo [15] = experiment: Cell cycle arrest in human LoVo cells assessed as accumulation of cells at G2 phase cells at 30 nM incubated for 24 hrs by […]PI staining based flow cytometric analysis (reference value: 14.84 %); type: functional
# LoVo [16] = experiment: Cell cycle arrest in human LoVo cells assessed as accumulation of cells at S phase cells at 30 nM incubated for 24 hrs by […]PI staining based flow cytometric analysis (reference value: 54.99 %); type: functional
# RKO [17] = experiment: Cell cycle arrest in human RKO cells assessed as accumulation of cells at G1 phase at 90 nM incubated for 24 hrs by […]PI staining based flow cytometric analysis (reference value: 35.29 %); type: functional
# RKO [18] = experiment: Cell cycle arrest in human RKO cells assessed as accumulation of cells at S phase at 90 nM incubated for 24 hrs by […]PI staining based flow cytometric analysis (reference value: 43.36 %); type: functional
# RKO [19] = experiment: Cell cycle arrest in human RKO cells assessed as accumulation of cells at G1 phase at 30 nM incubated for 24 hrs by […]PI staining based flow cytometric analysis (reference value: 35.29 %); type: functional
# RKO [20] = experiment: Cell cycle arrest in human RKO cells assessed as accumulation of cells at S phase at 30 nM incubated for 24 hrs by […]PI staining based flow cytometric analysis (reference value: 43.36 %); type: functional
# LoVo [21] = experiment: Induction of morphological changes in human LoVo cells assessed as appearance of condensed morphology incubated for 24 hrs by Giemsa staining based microscopic analysis; type: functional, cell-based; details: dose 10-90 nM
# LoVo [22] = experiment: Induction of morphological changes in human LoVo cells assessed as appearance of contracted nucleus incubated for 24 hrs by Giemsa staining based microscopic analysis; type: functional, cell-based; details: dose 10-90 nM
# RKO [23] = experiment: Induction of morphological changes in human RKO cells assessed as appearance of condensed morphology incubated for 24 hrs by Giemsa staining based microscopic analysis; type: functional, cell-based; details: dose 10-90 nM
# RKO [24] = experiment: Induction of morphological changes in human RKO cells assessed as appearance of contracted nucleus incubated for 24 hrs by Giemsa staining based microscopic analysis; type: functional, cell-based; details: dose 10-90 nM
# Mitochondrial membrane [25] = experiment: Induction of mitochondrial membrane potential loss in human RKO cells assessed as TMRE positive cells at 90 nM incubated for 24 hrs by TMRE staining based flow cytometric analysis (reference value: 95.54 %); type: cell membranes
# Mitochondrial membrane [26] = experiment: Induction of mitochondrial membrane potential loss in human LoVo cells assessed as decrease in TMRE positive cells at 10 to 90 nM incubated for 24 hrs by TMRE staining based flow cytometric analysis; type: cell membranes; details: dose 10-90 nM
# Mitochondrial membrane [27] = experiment: Induction of mitochondrial membrane potential loss in human RKO cells assessed as decrease in TMRE positive cells at 10 to 90 nM incubated for 24 hrs by TMRE staining based flow cytometric analysis; type: cell membranes; details: dose 10-90 nM
# HT-29 = experiment: Antitumor activity against human HT-29 cells xenografted in male BALB/c nude mouse assessed as tumor growth inhibition at 40 mg/kg, ip administered once daily for 14 days relative to control; type: functional; details: HT-29, 336 h, time 14 day, read-out: TGI
# [28] = Toxicity in male BALB/c nude mouse xenografted with human HT-29 cells assessed as tolerance at 40 mg/kg, ip administered once daily for 14 days; type: organism-based; details: in vivo, 336 h, time 14 day
# [29] = Toxicity in male BALB/c nude mouse xenografted with human LoVo cells assessed as body weight loss at 40 mg/kg, ip administered once daily for 14 days; type: organism-based; details: in vivo, 336 h, time 14 day
# [30] = Chemical stability of compound in McCoy's 5A cell culture medium containing 1 % DMSO assessed as retention time at 100 uM incubated for 24 hrs by HPLC analysis; type: physicochemical
# [31] = Chemical stability of compound in McCoy's 5A cell culture medium containing 1 % DMSO assessed as (S)-3-fluoro-14-(3-fluorophenyl)-10-hydroxy-8,13,13b,14-tetrahydroindolo[2',3':3,4]pyrido[2,1-b]quinazolin-5(7H)-one release by measuring retention time at 100 uM incubated for 24 hrs by HPLC analysis; type: physicochemical
smiles,measurement,setting,value
CC(C)(C)OC(=O)N[C@@H](CCC(N)=O)C(=O)Oc1ccc2[nH]c3c(c2c1)CCN1C(=O)c2cc(F)ccc2N(c2cccc(F)c2)[C@H]31,IC50,HCT-116,0.26 µM
same,IC50,RKO [1],0.05 µM
same,IC50,MGC-803,0.12 µM
same,IC50,Huh-7,0.37 µM
same,IC50,MCF7,0.6 µM
same,solubility,[2],0.0114 mg/mL
same,Tmax,[3],1 h
same,Cmax,[4],7.08 µg/mL
same,AUC(0-t) at 24 h,[5],14.6 µg·h/mL
same,Ratio IC50,[6],3.4
same,Ratio IC50,[7],3.4
same,Activity,LoVo [8],Dose-dependent-effect
same,Activity,LoVo [9],25.84%
same,Activity,LoVo [10],19.93%
same,Activity,LoVo [11],26.62%
same,Activity,LoVo [12],27.11%
same,Activity,LoVo [13],45.15%
same,Activity,LoVo [14],10.27%
same,Activity,LoVo [15],61.56%
same,Activity,LoVo [16],26.97%
same,Activity,RKO [17],26.83%
same,Activity,RKO [18],49.95%
same,Activity,RKO [19],16.95%
same,Activity,RKO [20],25.51%
same,Activity,LoVo [21],Dose-dependent-effect
same,Activity,LoVo [22],Dose-dependent-effect
same,Activity,RKO [23],Dose-dependent-effect
same,Activity,RKO [24],Dose-dependent-effect
same,Activity,Mitochondrial membrane [25],85.1%
same,Activity,Mitochondrial membrane [26],Active
same,Activity,Mitochondrial membrane [27],Active
same,inhibition in vivo at 40 mg/kg,HT-29,70.1%
same,Activity,[28],Non-toxic
same,Activity,[29],Non-toxic
same,Retention_time,[30],8.63 min
same,Retention_time,[31],6.24 min
